Source: ChEMBL document CHEMBL3525933 (Drug Metab Dispos, 2012)

Legend:
[1] = Drug excretion in streptozotocin-induced diabetic Wistar rat urine treated with mangiferin at 400 mg/kg, po administered as single dose by HPLC-DAD analysis; assay type: ADME, organism-based; set-up: dose 400 mg/kg, route oral; details: in vivo
[2] = organism: Rattus norvegicus; assay: Drug retention time in Wistar rat by HPLC-DAD analysis; assay type: ADME, organism-based

- Drug excretion [1]: metabolite_detected
- Retention_time [2]: 40.4 min
Structure (SMILES): O=c1c2cc(O)ccc2oc2cccc(O)c12
